Results published in patent publication US12522610B2 (priority 2018, dated 2026).
In brackets after ≈: the same amount, converted by molar mass. Where two headings read alike, the source gives them in different places.

Experiments:
[1] = salt forms; dissolution medium, 55° C. water bath, 60 rpm; Table 4
physchem = settings: 55 °C, aqueous with cosolvent or surfactant or cyclodextrin, thermodynamic from solid

| Compound | solubility [1] | solubility (physchem) |
| --- | --- | --- |
| Buprenorphine acetate-hydrochloride salt | 1716 µg/mL |  |
| COC12CC[C@@]3(C[C@@H]1[C@](C)(O)C(C)(C)C)C1Cc4ccc(O)c5c4[C@@]3(CCN1CC1CC1)[C@H]2O5 [Buprenorphine free base] |  | 1180 µg/mL (≈ 2510 µM) |
